Holding throughout (type): biochemical
Details in all cases: in vitro

For test [1], the target named is noradrenaline reuptake. Put plainly: noradrenaline (NUP) reuptake blockade. As for the experimental part: (§1) Measurement of dopamine (DUP), serotonin (SUP) and noradrenaline NUP) reuptake blockade was carried out using the methods described in Neuropharmacology Vol. 27, No. 3, pp. 251-260, 1988 and results are presented in Table 1 below.
Test [2] deals with serotonin reuptake. Put plainly: serotonin (SUP) reuptake blockade. As for the experimental part:
as §1

Test [3] has as its target dopamine reuptake. Kind of test: dopamine (DUP) reuptake blockade. The procedure:
as §1

Counter-ions that a name gives are not always drawn.

The results in this text go back to patent publication US5994366A, “Tetrahydroimidazo[2,1-A]isoquinoline derivatives” (Akzo Nobel NV, priority 1997, dated 1999).

Regarding `Cl.Clc1ccc(C2CN3CCN=C3c3ccccc32)cc1` (racemic) [Example 2a, (rac)6-(4-chlorophenyl)-2,3,5,6-tetrahydroimidazo[2,1-a]isoquinoline hydrochloride], the “NUP (pKi)” value in test [1] came out at 7.9. Further, in test [2], the “SUP (pKi)” value came to 7.4. Besides, the “DUP (pKi)” value in test [3] is given as 7.15.
For `Fc1ccc(C2CN3CCN=C3c3ccccc32)cc1` (racemic) [Example 2b, (rac)-6-(4-Fluorophenyl)-2,3,5,6-tetrahydroimidazo[2,1-a]isoquinoline], in that order: 7.65, 7.5 and 6.5.
For `Cc1ccc(C2CN3CCN=C3c3ccccc32)cc1` (racemic) [Example 2c, (rac)-2,3,5,6-Tetrahydro-6-(4-methylphenyl)imidazo[2,1-a]isoguinoline (Z)-2-butenedioate (1:1) salt], the “NUP (pKi)” value in test [1] turned out to be 7.75. Besides, the “SUP (pKi)” value in test [2] is 6.9. Besides, the “DUP (pKi)” value in test [3] is 7.05.
Taken in the same sequence, the figures for `Clc1ccc(C2CN3CCN=C3c3ccccc32)cc1` (single isomer, unassigned; (+)) [Example 4, (+)-6-(4-Chlorophenyl)-2,3,5,6-tetrahydroimidazo[2,1-a]isoquinoline (E)-2-butenedioate (1:1) salt] were 8.15, 7.0 and 7.2.
In the case of `Fc1ccc(C2CN3CCN=C3c3ccccc32)cc1` (single isomer, unassigned; (+)) [Example 7, (+)-6-(4-Fluorophenyl)-2,3,5,6-tetrahydroimidazo[2,1-a]isoquinoline (E)-2-butenedioate (1:1) salt], in test [1], the “NUP (pKi)” value worked out at 7.75. For the same compound, the “SUP (pKi)” value in test [2] is reported as 6.25. The “DUP (pKi)” value in test [3] was found to be 6.45.
With `Clc1ccc(C2CN3CCN=C3c3ccccc32)cc1` (single isomer, unassigned; (-)) [Example 3, (-)-6-(4-chlorophenyl)-2,3,5,6-tetrahydroimidazo[2,1-a]isoquinoline (E)-2-butenedioate (1:1) salt], the “NUP (pKi)” value in test [1] worked out at 8.1. In addition, the “SUP (pKi)” value in test [2] is recorded as 7.3. For the same compound, in test [3], the “DUP (pKi)” value is 7.15.
As to `Fc1ccc(C2CN3CCN=C3c3ccccc32)cc1` (single isomer, unassigned; (-)) [Example 6, (-)-6-(4-fluorophenyl)-2,3,5,6-tetrahydroimidazo[2,1-a]isoquinoline (E)-2-butenedioate (1:1) salt], the “NUP (pKi)” value in test [1] is 7.5. The “SUP (pKi)” value in test [2] is on record as 7.9. Moreover, in test [3], the “DUP (pKi)” value is reported as 6.6.
